Results: patent US4922021A, “New alkylene diamine derivatives” (BASF Aktiensellschaft, priority 1981, dated 1990)

Assays:
[1] = literature; cited from earlier work
right ventricle = assay: Electrophysiological tests on isolated rabbit heart, right ventricle; set-up: species or system rabbits; conditions: 2 mg/l, average
Procedure: (§1) Heart of rabbits of both sexes, weighing 1-2 kg, were removed, the right and left auricles and a segment of the right ventricle were prepared and placed into a vessel filled with nutrient solution. Bipolar platinum electrodes (a stimulating electrode and a lead electrode) were placed onto the organ strips, and the electric stimulus threshold and the speed of impulse condution were measured. The effective refractory period determined on the basis of the maximum driving frequency.

[2] = test system: ouabain-induced arrhythmia; assay: Ouabain-induced arrhythmia in anaesthetized dogs; assay type: in vivo; conditions: i.v.; for Complete suspension, number of cases: protection > 30 min = complete
Procedure: Anaesthetized dogs of both sexes were treated intravenously with an infusion of 60 /ug/kg of ouabain to provoke arrhythmia, and the arrhythmic state was maintained with an ouabain dose 60 times less than the initial. In this way a ventricular tachycardia or tachyarrhythmia lasting for more than 180 minutes was provoked. The compounds were tested during this period. The period of recovered normal sinus rhythm was recorded, and when a compound exerted protective effect for more than 30 minutes, this fact was regarded as complete protection. The tests were performed essentially according to the method of Piascik et al. [Can.
Examination of the anti-arrhythmic effect in dogs anaesthetized with a 30
of pentobarbital sodium and treated with ouabain

[3] = test system: barium chloride-induced arrhythmia; assay: Barium chloride-induced arrhythmia in awake rabbits; assay type: in vivo; conditions: i.v., 2 mg/kg; arrhythmia suspended for at least 3 minutes
Procedure: The compounds to be tested were administered intravenously to the animals 3 minutes after treating them with barium chloride, and the effect was recorded. It was regarded as a positive protecting effect when the compound suspended the arrhythmic condition for at least 3 minutes.

[4] = test system: myocardial contractile force, arterial blood pressure and pulse rate; assay: Inotropic effects (myocardial contractile force) in anaesthetized cats; assay type: in vivo; conditions: i.v.; for Contractility, change: basal 100
Procedure: Cats were anaesthetized with chloralose-urethane, a cannula was lead into the femoral artery, and the cannula was connected, through a Statham P 23 Db pressure sensor, to a Hellige recorder, where the arterial blood pressure and the pulse rate were recorded. The animals were respirated artifically, their chests were opened, and a strain gage was sutured on the left heart. The strain gage was connected to the Hellige recorder, and the variations in cardiac contractile force were recorded. The test compounds were administered to the animals intravenously through a cannula.

in vivo = conditions: mouse, ip
left auricle = assay: Electrophysiological tests on isolated rabbit heart, left auricle; set-up: species or system rabbits; conditions: 2 mg/l, average
Procedure: as §1

[5] = test system: aconitin-induced arrhythmia; assay: animal or person; conditions: Mus musculus, ip, read-out: Delay in time of appearance of arrhythmia
[6] = test system: fibrillation threshold of the heart; assay: Determination of the fibrillation threshold in anaesthetized cats; assay type: in vivo; conditions: i.v.
Excerpt: The chests of the cats were opened under chloralose-urethane anaesthesia a bipolar stimulating electrode was fixed onto the heart, and the heart was stimulated electrically with a frequency of 20 Hz, under continuously increasing current strength, until a fibrillo-flattern could be observed. This current strength was regarded as the fibrillation threshold of the animal.

[7] = test system: aconitin-induced arrhythmia; conditions: mouse, in vivo
[8] = test system: systemic and pulmonary circulation; assay: Effects on the systemic and pulmonary circulation of awake cats; assay type: in vivo; conditions: i.v., 1.0 mg/kg
Excerpt: Cats were anaesthetized with pentobarbital, and cannulas were placed into the carotis artery and, through the jugular vein, into the pulmonary artery. An additional cannula was placed into the jugular vein for the administration of the test compound. The cannulas were filled up with heparin in order to avoid blood clotting. Thereafter the wounds were sutured, and the cannulas were led below a bandage placed around the neck of the animal. 3 days after this operation the systemic arterial blood pressure, the pulmonary arterial pressure and the pulse rate of the awake animals were measured with a Hellige recorder, connected to the cannulas through a Statham P 23 Db type pressure transducer.

[9] = J. Med. Chem. 6, 705 (1963); cited from earlier work
respiratory centre = conditions: Bull. Soc. Chim. France 1947, 827; cited from earlier work
[10] = test system: sympathic nervious system; conditions: Bull. Soc. Chim. France 1940, 603; cited from earlier work

In the case of `CCN(CC)CCNc1c(C)cccc1C` [1-(2,6-dimethylphenyl-amino)-2-diethylamino-ethane], the local anaesthetic effects [1] is listed as “local anaesthetic effects”.
With `Cc1cccc(C)c1NCC(C)N(C)C` (centres unmarked) [1-(2,6-dimethylphenyl-amino)-2-dimethylamino-propane] the “Change of the conduction time” value (right ventricle) was “+12%”, the “Change of the effective refractory period” value (right ventricle) was “+18%” and the “Change of the electric stimulus threshold” value (right ventricle) was “+6%”. The “Average time of partial suspension” value ([2]; 0.5 mg/kg) was 0.4 min, the “Complete suspension, number of cases” value ([2]; 0.5 mg/kg) was 0/15 and the “Average time of partial suspension” value ([2]; 1.0 mg/kg) was 1.5 min. The “Complete suspension, number of cases” value ([2]; 1.0 mg/kg) was 0/15, the “Average time of partial suspension” value ([2]; 2.0 mg/kg) was 5.7 min and the “Complete suspension, number of cases” value ([2]; 2.0 mg/kg) was 4/15. The “Average time of partial suspension” value ([2]; 4.0 mg/kg) was 6.4 min, the “Complete suspension, number of cases” value ([2]; 4.0 mg/kg) was 3/12 and the “Average time of partial suspension” value ([2]; 8.0 mg/kg) was 10.0 min. For the same compound, the “Complete suspension, number of cases” value ([2]; 8.0 mg/kg) was 5/9, the “Protecting effect, number of animals” value [3] was 5/10 and the “Arterial blood pressure, change” value ([4]; 0.5 mg/kg) was -7 mmHg. The “Pulse/minute, change” value ([4]; 0.5 mg/kg) was “+10 /minute”, the “Contractility, change” value ([4]; 0.5 mg/kg) was -5% and the “Arterial blood pressure, change” value ([4]; 1.0 mg/kg) was -10 mmHg. For the same compound, the “Pulse/minute, change” value ([4]; 1.0 mg/kg) was “+15 /minute”, the “Arterial blood pressure, change” value ([4]; 2.0 mg/kg) was -30 mmHg and the “Pulse/minute, change” value ([4]; 2.0 mg/kg) was -10 min⁻¹. The “Arterial blood pressure, change” value ([4]; 5.0 mg/kg) was -40 mmHg, the “Pulse/minute, change” value ([4]; 5.0 mg/kg) was -25 min⁻¹ and the “Contractility, change” value ([4]; 5.0 mg/kg) was -33%. For the same compound, the LD50 (in vivo) was 114 mg/kg, the “Change of the conduction time” value (left auricle) was “+12%” and the “Change of the effective refractory period” value (left auricle) was “+20%”. For the same compound, the “Change of the electric stimulus threshold” value (left auricle) was “+32%”, the change in vivo at 10 mg/kg [5] was 17.2% and the change in vivo at 25 mg/kg [5] was 72.7%. For the same compound, the change in vivo at 50 mg/kg [5] was 138%, the change in vivo at 75 mg/kg [5] was 212% and the “Effect on the fibrillation threshold” value ([6]; 0.5 mg/kg) was “+8.6%”. For the same compound, the “Effect on the fibrillation threshold” value ([6]; 1.0 mg/kg) was “+12.2%”, the “Effect on the fibrillation threshold” value ([6]; 2.0 mg/kg) was “+27.0%” and the “Effect on the fibrillation threshold” value ([6]; 4.0 mg/kg) was “+53.9%”. The “column headed by drawing 10 (apparently LD50/ED50)” value ([7]; ip) was 5.7, the “Delay in the appearance time of arrhythmia” value ([7]; po, 100 mg/kg) was “+74.0%” and the “Pulmonary arterial mean pressure, change” value ([8]; basal 13) was “+2.8 mmHg”. The “Arterial blood pressure, change” value ([8]; basal 102) was “+2 mmHg” and the “Pulse/minute, change” value ([8]; basal 190-200) was -9 min⁻¹.
In the case of `CCN(CCN)c1c(C)cccc1C` [N-ethyl-N-(2,6-dimethylphenyl)-ethylenediamine], the hypotensive effects [9] is given as “hypotensive effects”.
For `CCN(CC)CCNc1cccc(Cl)c1` [1-(3-chlorophenyl-amino)-2-diethylamino-ethane], the “stimulates the respiratory centre” value (respiratory centre) is given as “stimulates the respiratory centre”.
For `Cc1cccc(C)c1N(C)CCN` [N-methyl-N-(2,6-dimethylphenyl)-ethylenediamine], the hypotensive effects [9] is listed as “hypotensive effects”.
In the case of `Cc1cccc(C)c1NCCN` [N-(2,6-dimethylphenyl)-ethylenediamine], the hypotensive effects [9] is given as “hypotensive effects”.
For `CC(CN)Nc1ccccc1` (centres unmarked) [1-amino-2-phenylamino-propane], the “acting on the sympathetic nervous system” value [10] is given as “acting on the sympathic nervious system”.
